Experimental data taken from ChEMBL document CHEMBL1150476, “Peptoid mimics of a C2-symmetric inhibitor of the HIV-1 protease” (Bioorg Med Chem Lett, 1994).

Tests used:
[1] = target: Human immunodeficiency virus type 1 protease (Human immunodeficiency virus 1) (UniProt Q72874); assay: Concentration required for inhibitory activity against HIV-1 protease at concentration of 10e-5 M by using HKARVL-(pNO2)F-EAnLSNH2 as substrate; No significant activity
[2] = target: Human immunodeficiency virus type 1 protease (Human immunodeficiency virus 1) (UniProt Q72874); assay: Concentration required for inhibitory activity against HIV-1 protease at concentration of 10e-5 M by using SQN-(pNO2)F-PIV as substrate; No significant activity
[3] = target: Human immunodeficiency virus type 1 protease (Human immunodeficiency virus 1) (UniProt Q72874); assay: Concentration required for inhibitory activity against HIV-1 protease at concentration of 10e-5 M by using TLNFPIS AMC as substrate; No significant activity

Measured: Activity

CC(C)N(CC(=O)N(Cc1ccccc1)CC(O)CN(Cc1ccccc1)C(=O)CN(C(=O)CN(C(=O)OC(C)(C)C)C(C)C)C(C)C)C(=O)CN(C(=O)OC(C)(C)C)C(C)C
inactive: [1] No significant activity | [2] No significant activity | [3] No significant activity

CCCCCCCC/C=C\CCCCCCCC(=O)N(CC(=O)N(CC(=O)N(Cc1ccccc1)CC(O)CN(Cc1ccccc1)C(=O)CN(C(=O)CN(C(=O)CCCCCCC/C=C\CCCCCCCC)C(C)C)C(C)C)C(C)C)C(C)C
inactive: [1] No significant activity | [2] No significant activity | [3] No significant activity

CC(C)N(CC(=O)N(Cc1ccccc1)CC(O)CN(Cc1ccccc1)C(=O)CN(C(=O)CN(C(=O)OCc1ccccc1)C(C)C)C(C)C)C(=O)CN(C(=O)OCc1ccccc1)C(C)C
inactive: [1] No significant activity | [2] No significant activity | [3] No significant activity

CC(C)NCC(=O)N(CC(=O)N(Cc1ccccc1)CC(O)CN(Cc1ccccc1)C(=O)CN(C(=O)CNC(C)C)C(C)C)C(C)C
inactive: [1] No significant activity | [2] No significant activity | [3] No significant activity

CC(C)N(CC(=O)N(Cc1ccccc1)CC(O)CN(Cc1ccccc1)C(=O)CN(C(=O)CN(C(=O)CCC(=O)O)C(C)C)C(C)C)C(=O)CN(C(=O)CCC(=O)O)C(C)C
inactive: [1] No significant activity | [2] No significant activity | [3] No significant activity
